Measurements as given in patent US9125930B2, “EGFR aptamer inhibitor for use in therapy and diagnosis” (CONSIGLIO NAZIONALE DELLE RICERCHE, priority 2010, dated 2015).

How the values were obtained:
[1] = system: A431 tumors; experiment: Tumor growth in A431 mouse xenograft; format: in vivo; conditions: 200 pmoles intratumoral
Description: Athymic nude mice (nu/nu) were maintained in a sterile environment according to guidelines for Animal Care. Mice were inoculated with either 3×10^6 (in 100 μl) in vitro propagated A431 cells subcutaneously injected into each flank. Approximately 24 non-necrotic tumors for each tumor type, of about 1 cm in diameter, were randomly divided into three groups of eight mice per treatment group as follows: group 1, no treatment; group 2, treated with scrambled RNA as a negative control (200 pmols/injection); group 3, treated with CL4 42-81 (200 pmols/injection). Compounds were injected intra-tumorally in 100-1 μl volumes three times a week for two weeks. Day 0 marks the first day of injection. The aptamers may also be administered systemically, in particular when optimized by addition of polyethylene glycol (PEG).
The volume injections are small enough to preclude the compounds being forced inside the cells due to a nonspecific high-pressure injection. Tumors were measured every 3 days with calipers in three dimensions. The following formula was used to calculate tumor volume: VT=(W×L×H)×0.5236 (W, the shortest dimension; L, the longest dimension; H, the intermediate dimension). The growth curves are plotted as the means tumor volume±s.e.m. Statistical analysis of tumor size data was conducted using a one-way ANOVA. A P-value of 0.05 or less was considered to indicate a significant difference. […]

[2] = target: EGFR (Homo sapiens, UniProt P00533); experiment: Immunoblot of EGF-dependent EGFR phosphorylation in A549 cells; format: cell-based; parameters: endogenous in cells; host or cells: A549; conditions: 200 nM aptamer, following 5 min of EGFR stimulation
Description: […] The aptamers were subjected to a short denaturation-renaturation step (85° C. for 5 min, snap-cooled on ice for 2 min, and allowed to warm up to 37° C.) before each treatment. To prepare cell extracts, cells were washed twice in ice-cold PBS, and lysed in buffer A (50 mM Tris-HCl pH 8.0 buffer containing 150 mM NaCl, 1% Nonidet P-40, 2 mg/ml aprotinin, 1 mg/ml pepstatin, 2 mg/ml leupeptin, 1 mM Na3VO4). Protein concentration was determined by the Bradford assay using bovine serum albumin as the standard. The cell lysates were subjected to SDS-PAGE. Gels were electroblotted into polyvinylidene difluoride membranes (Millipore Co., Bedford, Mass.), and filters were probed with the indicated primary antibodies: anti-EGFR and anti-phospho-EGFR (Tyr1062), anti-phospho-44/42 MAP kinase (E10) (also indicated as p-Erk), anti-phospho-Akt, anti-Akt and anti-phospho-STAT3 (Tyr705), anti-ErbB2 (all from Cell Signaling, Beverly, Mass., United States); anti-Erk1, anti-EGFR, anti-ErbB3, anti-ErbB4 (C-16) (Santa Cruz Biotechnology, California, United States); anti-α-αtubulin (DM 1A) (Sigma, St. Louis, Mo.).
Proteins were visualized with peroxidase-conjugated secondary antibodies using the enhanced chemiluminescence system (GE Healthcare Bio-Sciences, Uppsala, Sweden). […]

[3] = system: NIH3T3 cells; experiment: Binding on parental NIH3T3 cells; parameters: species or system mouse; conditions: [32P]-labeled aptamer at 100 nM; relative to scrambled aptamer
Description: (§1) Human NSCLC A549, epidermoid carcinoma A431, glioma U87MG and T98G, breast SKBr3, MCF7 and T47D and mouse fibroblast NIH3T3 (all from American Type Culture Collection, Manassas, Va.) cells were grown in Dulbecco's modified Eagle medium (DMEM) supplemented with 10% fetal bovine serum (FBS) and 2 mM L-glutamine (Invitrogen, Carlsbad, Calif.). NIH3T3 cells stably transfected with human EGFR (NIH/EGFR) were grown in DMEM with 10% FBS and 2 mM L-glutamine supplemented with 50 μg/ml Gentamycin.
(§2) Binding experiments were performed with 5′-[^32P]-labeled RNA. For labeling 2′-F-Py RNAs were 5′-end dephosphorylated using bacterial alcaline phosphatase (Invitrogen, Carlsbad, Calif.) before [^32P]-5′-end-labeled using T4 kinase (Invitrogen) and γ-[^32P]-ATP (6×10^3 Ci/mmol, GE Healthcare Bio-Sciences, Uppsala, Sweden) according to the supplier's instructions.
(§3) For binding experiments on cells, 3.5×10^4 cells were plated in 24-well plates in triplicate and were incubated with CL4 42-81 aptamer the scrambled sequence used as a negative control at 100 nM concentration in 200 μl of DMEM serum free for 20 min at RT in the presence of 100 μg/ml polyinosine as a nonspecific competitor (Sigma, St. Louis, Mo.). After five washings with 500 μl DMEM, bound sequences were recovered in 300 μl of SDS 1%, and the amount of radioactivity recovered was counted.

[4] = system: A549 cells; experiment: [3H]-thymidine incorporation assay; format: cell-based, human; conditions: A549, 200 nM final concentration, 24 and 48 h
Description: A549 cells were treated for 24 h or 48 h with CL4 42-81 or CL4 scrambled. During the final 6 h, cells were pulsed with 1 μCi/ml [^3H]-thymidine (45 Ci/mmol) (Amersham-Pharmacia Biosciences) added in complete growth medium and incubated at 37° C. At the end of each pulse, cells were harvested and [^3H]-thymidine incorporation was analyzed by a Beckman LS 1701 Liquid Scintillation Counter.

[5] = system: NIH3T3 cells stably transfected with human EGFR (NIH/EGFR); experiment: Binding on NIH/EGFR cells; parameters: species or system mouse; conditions: [32P]-labeled aptamer at 100 nM; relative to scrambled aptamer
Description: as §1, §2, §3

[6] = system: caspase-8; experiment: Caspase-8 in A549 xenograft tumor lysates; format: in vivo, mouse; conditions: pooled tumor lysates
Description: FIG. 8. (A) A549 cells (2,000 cells/well in 24-well plates) were treated for 24 h or 48 h with CL4 42-81 or CL4 scrambled (200 nM-final concentration) and proliferation was determined by [^3H]-thymidine incorporation. Vertical bars indicate the standard deviation values. […] Day 0 marks the first day of injection. Data are shown as means±s.e.m. (n=8 tumors). (C) Three tumors per group selected randomly were excised, lysed, and the pooled lysates were immunoblotted with anti-pEGFR, anti-EGFR, anti-caspase-3, anti-cleaved caspase-8 and anti-αtubulin antibodies, as indicated. Molecular weights of indicated proteins are reported. (D) Cell lysates as in (C) were analyzed by caspase-3 fluorimetric assays.
Athymic CD-1 nude mice (nu/nu) were housed in a highly controlled microbiological environment, thus to guarantee specific pathogen free conditions. Mice were injected subcutaneously with 3×10^6 (in 100 μl) in vitro propagated A549. Sixteen non-necrotic tumors of about 0.5 cm in diameter were randomly divided into two groups of eight mice as follows: group 1, CL4 scrambled-treated; group 2, CL4 42-81-treated. Aptamers (200 pmols/injection) were injected intra-tumorally in 100-1 μl volumes three times a week for 16 days. Tumors were measured every 2 days.

Substance: CL4 42-81: 2′-fluoropyrimidine nuclease-resistant RNA aptamer of 39 nt: 5′ GCCUUAGUAACGUGCUUUGAUGUCGAUUCGACAGGAGGC 3′ (SEQ ID No. 1) (2'-fluoro at CU, RNA at AG, backbone not given here)
- tumor growth from day 9 to day 15 ([1]; three times a week): stopped to grow and was reduced in volume
- tumor volume ([1]; three times a week for two weeks): pronounced reduction in tumor volume
- inhibition of EGF-dependent phosphorylation of EGFR [2]: 60%
- binding on parental NIH3T3 cells [3]: does not binding
- [3H]-thymidine incorporation [4]: completely blocks
- binding on NIH/EGFR cells [5]: binds
- caspase-8 activation in xenograft tumors [6]: activates
